Results reported in patent US20120077735A1, “PROPHYLACTIC AGENT FOR RENAL FAILURE” (priority 2007, published 2012).

Assays:
[1] = test system: male Wistar rats; assay: Test 1: thickening of the small- and mid-sized renal artery wall in rats given L-NAME; type: in vivo, rat; conditions: drinking water with L-NAME 1 g/L plus VPP 0.3 g/L or Enalapril 0.5 mg/L, ad libitum for eight weeks; compared with L-NAME alone; FIG. 1
Experimental: (§1) In order to evaluate the effect of the tripeptide Val Pro Pro (VPP) to suppress kidney glomerular disease and renal arteriosclerosis, a test on the frequency of occurrence of renal glomerular lesions and the degree of thickening of the small and middle renal artrey wall was carried out.
(§2) The test was carried out using three groups of male Wistar rats of seven weeks old (Japan SLC, Inc.), each of which group consist of 9 to 12 rats. […] The dose of Enalapril was determined such that its activity to inhibit ACE was equivalent to VPP's. […]
The thickening of the small-, and mid -sized artery wall existing in the renal cortex was also evaluated by a tissue pathological test in the same manner as the observation of the glomerular lesions. […] The thickness of the small- and mid-sized artery wall was scored from 0 to 3 as described below and a score for each individual rat was determined. The determined score for each individual rat was subjected to statistical analysis and a score for each group was determined. […]

[2] = test system: male Wistar rats; assay: Test 1: frequency of occurrence of renal glomerular lesions in rats given L-NAME; type: in vivo, rat; conditions: drinking water with L-NAME 1 g/L plus VPP 0.3 g/L or Enalapril 0.5 mg/L, ad libitum for eight weeks; compared with L-NAME alone; FIG. 2
Experimental: as §1, §2
Under a microscopic observation, the glomerulus that atrophic lesions, deterioration of the glomerulus, glomerulosclerosis, alteration of Bowman's capsule or the like was observed was defined as the glomerulus with lesions, in accordance with the definition of the glomerular lesions described in a book by Enomoto et al. (edited by Makoto Enomoto, Yuzo Hayashi, and Hisako Tanaka, “Pathological tissues of experimental animals”, Softscience, pages 380-396). […] In one whole section, the frequency of occurrence of these glomerular lesions was scored from 0 to 3, and a score was determined for each individual rat. The thus determined score for each individual rat was subjected to statistical analysis and a score for each group was determined. […]

[3] = test system: male Wistar rats; assay: Test 2: rat renal pathologic state (glomerular lesions, renal artery wall at the hilum and small- and mid-sized artery wall thickening) in rats given L-NAME; type: in vivo; conditions: drinking water with L-NAME 1 g/L plus IPP 0.3 g/L or Enalapril 0.5 mg/L, eight weeks; for With pathologic state / Without pathologic state: pathologic state = score not less than 1 in all three items
Experimental: The tripeptide Ile Pro Pro (IPP) was also tested for renal pathologic state, in order to evaluate its effect to suppress kidney glomerular disease and renal arteriosclerosis.
The test was carried out using three groups of male Wistar rats of seven weeks old (Japan SLC, Inc.), each of which group consist of 9 to 12 rats. After habituation breeding for a week, drinking water with L-NAME (manufactured by Sigma) being dissolved at a concentration of 1 g/L; drinking water with L-NAME and IPP being dissolved at a concentration of 1 g/L and 0.3 g/L respectively; drinking water with L-NAME and angiotensin converting enzyme (ACE) inhibitor, Enalapril at a concentration of 1 g/L and 0.5 mg/L respectively, were supplied ad libitum for eight weeks. The dose of Enalapril was determined such that its activity to inhibit ACE was equivalent to the activity of IPP to inhibit ACE.
The rats were sacrificed by exsanguination under diethylether anesthesia. The kidney was enucleated and then fixed with 10% neutral buffered formalin solution. Tissue samples were prepared from the fixed kidney by excising in parallel with the minor axis such that the tip of renal papilla was included. The specimen were embedded in paraffin and cut into thin sections with a thickness of 2.0 to 2.5 μm using a microtome. Two to five sections per rat were prepared. The thin sliced sections were subjected to hematoxylin eosin staining or periodic acid methenamine silver staining (PAM staining). In accordance with a method by Foglieni et al. (Chiara Foglieni, et al., “Protective effect of EDTA preadministration on renal ischemia” BMC Nephrology 2006, 7:5, [online], Mar. 15, 2006, BioMed Central Ltd, http://www.biomedcentral.com/bmcnephrol/), a histopathological examination was, with keeping the name of each sample concealed, carried out by a pathologist who was not involved in the test.
Under a microscopic observation, the glomerulus that atrophic lesions, deterioration of the glomerulus, glomerulosclerosis, alteration of Bowman's capsule or the like was observed was defined as the glomerulus with lesions, in accordance with the definition of the glomerular lesions described in a book by Enomoto et al. (edited by Makoto Enomoto, Yuzo Hayashi, and Hisako Tanaka, “Pathological tissues of experimental animals”, Softscience, pages 380-396). The atrophic lesion refers to conditions where the size ratio between the glomerulus and Bowman's capsule is altered due to glomerular atrophy. The deterioration of the glomerulus refers to conditions where the blood capillary cavity of the glomerulus is disappeared and glomerular functions are lost. The glomerulosclerosis refers to conditions where increased mesangial matrix was observed without accompanying hyperplasia of collagen fiber. The alteration of Bowman's capsule refers to conditions where hypertrophy of epithelial cells and uptake of lipid droplets and/or protein particles are observed. In one whole section, the frequency of occurrence of these glomerular lesions was scored from 0 to 3, and a score was determined for each individual rat.
Score 0: A case where one or two glomerular lesions owing to physiologic alterations were observed.
Score 1: A case where one or two focal regions in the glomerulus were observed, which regions were a limited and small range.
Score 2: A case where two to four focal regions in the glomerulus were observed, which regions were a middle sized range.
The focal regions herein indicate that a plural of lesions are, on the basis of pathological findings, observed in a certain area in one whole section.
The thickening of the renal artery wall at the hilum existing in the renal medulla and the thickening of the small and middle artery wall existing in the renal cortex were also evaluated by a tissue pathological test in the same manner as the observation of the glomerular lesions. […]

Molecule: CCOC(=O)[C@H](CCc1ccccc1)N[C@@H](C)C(=O)N1CCC[C@H]1C(=O)O [Enalapril]
- degree of thickening of the small- and mid-sized artery wall (score 0 to 3) [1]: did not show the suppressive effect
- frequency of occurrence of the glomerular lesions (score 0 to 3) [2]: did not show the suppressive effect
- onset of the pathologic state of the glomerulus and the renal artery (result in words) [3]: did not exhibit such an effect
- With pathologic state [3]: 2 rats
- Without pathologic state [3]: 7 rats

Molecule: Ile Pro Pro [IPP]
- onset of the pathologic state of the glomerulus and the renal artery (result in words) [3]: suppressed the onset of the pathologic state
- With pathologic state [3]: 0 rats
- Without pathologic state [3]: 9 rats

Molecule: Val Pro Pro [VPP]
- degree of thickening of the small- and mid-sized artery wall (score 0 to 3) [1]: decrease in the degree of thickening
- frequency of occurrence of the glomerular lesions (score 0 to 3) [2]: suppression of the frequency of occurrence of the glomerular lesions
